Consider three compounds from patent US9597324B2, “Treatment of CNS disorders associated with mutations in genes encoding lysosomal enzymes” (Amicus Therapeutics, Inc., priority 2005, dated 2017).

The structures appear in SMILES notation.

In data set [1] the test system is N370S Gaucher fibroblasts (DMN89.15). The experiment in a line: Gba / LAMP-1 lysosomal staining (confocal microscopy) in N370S Gaucher fibroblasts. Type of data set: cell-based, human. The note with it: for Gba staining localization: N370S Gaucher fibroblasts; for Amount of Gba in the lysosomes: dual Gba/LAMP-1 staining vs untreated control; for Lysosome staining pattern for Gba and LAMP-1: dual staining vs untreated control. Here is the method: N370S fibroblasts (DMN89.15) were cultured in DMEM with 10% FBS and 1% penn/strep at 37 C with […]. Wild-type fibroblast cell line CRL-2097 form a healthy individual was used as a control. Cells were sub-cultured from 10 cm plates into 12-well plates with cover slips. Cells from one confluent 10 cm plate were diluted in 38 ml of culture medium.
C-benzyl-isofagomine-control (secondary antibody only); untreated; 0.03 μM; 0.1 μM; 0.3 μM; 1.0 μM; 3.0 μM; and 10.0 μM.
Isofagomine-control (secondary antibody only); untreated; 10 μM; 30 μM; 100 μM; 1 nM; 3 nM; and 10 nM.
Cells were cultured for a total of about 6 days.
Cells were washed for 5 minutes in PBS, fixed for 15 minutes in 3.7% paraformaldahyde (in PBS), washed again for 5 minutes in PBS, and permeabilized with 0.5% saponin for 5 minutes. Cells were then washed with PBS containing 0.1% saponin, treated for 5 minutes with fresh 0.1% sodium borohydride/0.01% saponin, and washed 3 times with PBS with 0.1% saponin/1% BSA for 5 minutes each.
Cells were incubated for 1 h with 500 μl of primary anti-Gba (1:200) or anti-LAMP-1 (1:200; BD Pharmingen, Cat. No. 555798) antibody solution in PBS with 1% BSA. Lysosomal staining using LysoTracker® Red (Cambrex, East Rutherford, N.J.) was performed according to the manufacturer's instructions. Following incubation, cells were washed 3 times in 1% BSA containing 0.1% saponin in PBS, followed by incubation with the secondary antibody solution (1:500; anti-rabbit […] for anti-Gba and anti-mouse IgG AlexaFluor594 for anti-LAMP-1). Cells were mounted onto coverslips, sealed, and immediately viewed.
Cells were visualized using a confocal microscope. The red and green channel gains were set to 6 and the laser power was optimized using the intensity window, and were not adjusted for the rest of the experiment. All slides were analyzed at the same sitting and all images were gathered without any zoom using the 20× and 60× lens, the small pinhole, optimal pixel size, an average of 2 scans, and red and green channels were acquired simultaneously as in all previous experiments.

In the next data set the test system is human L444P mutated Gba. Kind of data set: Gba activity in brain and organs of L444P transgenic mice treated with chaperone in drinking water (incl. washout study). The format is in vivo, mouse. The note with it: for Gba activity in brain: about 10 mg/kg/day in drinking water. Here is the method:
L444P is a mutation associated with Types 2 and 3 Gaucher disease. […] Concomitant glucosylceramide synthase disruption is necessary, since previously made L444P transgenic mice died within 3 days of birth due to impaired permeability barrier function in the epidermis.
In addition, mice in a “washout” period of 2 weeks of non-chaperone treatment following 4 weeks of treatment were also evaluated for reversion of surrogate markers back to levels seen in untreated controls.
Mice were administered isofagomine or C-benzyl-isofagomine in their drinking water, ad libitum. Estimated daily dosage based on the volume of water consumed is about 10 mg/kg/day.
[…] Brian tissue is freshly harvested (blood washed away with PBS), or thawed from frozen stock. Tissue is minced tissue and homogenized on ice in 200-500 μl McIlvaine (MI) buffer (0.25% sodium taurocholate, 0.1% Triton x-100 in 0.1M citrate and 0.2M phosphate buffer, pH 5.2), and centrifuged at 10,000×g. The supernatant is collected and may be frozen at this step.
About 1-10 μl of supernatant from the brain tissue homogenates is added to a clear 96-well plate for the Micro BCA Protein Assay (Pierce, cat #23235) to quantitate the amount of total protein according to the manufacturer's protocol. As a negative control, another 10 μl is added to a black plate, mixed with 10 μl of 2.5 mM CBE (2.7 mg Conduritol B Epoxide in 6.7 ml buffer), an inhibitor of Gba activity, and left at room temperature (RT) for 30 minutes. 50 μl of 3 mM 4-methal Umbelliferal beta-D-glucoside (4-MU-beta-D-glucoside; made fresh, powder is dissolved in 0.2 ml of DMSO, then q.s. to proper volume with MI buffer), a Gba substrate, is then added, and the black plate is further incubated at 37° C. for 1 hr. After incubation, 10 μl of supernatant is added to a second black plate, mixed with 10 μl of MI buffer and 50 μl […] of Gba substrate 4-MU-beta-D-glucoside, and incubated at 37° C. for 1 hr. The reaction is then stopped by adding 70 μl 0.2 M glycine, pH 10.8. The plate is read in a plate-reader (Victor2 1420 multilabel counter; Wallac) at F460.
Relative […] is determined by the following equation: F460 without CBE−F460 with CBE)/(A550 sample−A550 buffer)
F460 reading is converted into nmole 4-MU based on 4-MU standard curve and A550 is converted into mg of protein based on the protein standard curve. One unit of Gba activity is defined as nmole of 4-MU released in one hour.
To determine if and in what time frame the effects of drinking water dosed AT2101 on L444P mice regress after cessation of the treatment, a washout study was performed. Nine male 3 month old L444P mice were dosed at about 10 mg/kg/day for 4 weeks with an equal number of mice untreated as a control.

A further data set deals with T1, mutant (R301Q) α-Gal A (Homo sapiens, UniProt P06280, R301Q).
T1 construct: host or cells: major organs of transgenic mice
T1 sequence (P06280 32-429 R301Q): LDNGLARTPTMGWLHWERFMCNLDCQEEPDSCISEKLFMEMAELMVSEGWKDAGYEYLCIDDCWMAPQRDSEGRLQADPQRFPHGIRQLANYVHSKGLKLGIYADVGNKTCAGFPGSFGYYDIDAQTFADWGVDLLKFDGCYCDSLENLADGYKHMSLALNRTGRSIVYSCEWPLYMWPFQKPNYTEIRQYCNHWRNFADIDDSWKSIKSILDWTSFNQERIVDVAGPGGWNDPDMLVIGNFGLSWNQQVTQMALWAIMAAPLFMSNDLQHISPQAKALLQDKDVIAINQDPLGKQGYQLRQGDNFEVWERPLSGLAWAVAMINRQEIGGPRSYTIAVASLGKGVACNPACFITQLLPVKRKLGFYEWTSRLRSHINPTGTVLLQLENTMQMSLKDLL
The note with it: oral administration, transgenic mice overexpressing mutant (R301Q) α-Gal A; cited from earlier work.

Data set [2] deals with T2, human mutant α-Gal A (R301Q) (Homo sapiens, UniProt P06280, R301Q).
T2 sequence (P06280 32-429 R301Q): T1 sequence (P06280 32-429 R301Q)
The settings on record: neutral pH; cited from earlier work.

Data set [3] has as its system lymphoblasts established from Fabry patients with R301Q or Q279E mutations. The note with it: cited from earlier work.
Data set [4] is described as follows: Detection of IFG in the CSF of treated monkeys. Type of data set: in vivo.
The test system of another data set is Gaucher patient cells. The settings on record: cited from earlier work.
Setting [5] is: N370S fibroblasts, 3.0 μl (so in the source).
Where [6] appears, read: after two weeks of treatment, data not shown.
Setting [7] is: N370S fibroblasts, concentration not given.

As to `OCC1C(Cc2ccccc2)NCC(O)[C@@H]1O` (stereo partly shown) [C-benzyl-isofagomine], the Gba staining localization entry in data set [1] (3 μM, Gba staining only (FIG. 2N)) is listed as “localize to lysosomes”. In data set [1] (setting [5]), the “Amount of Gba in the lysosomes” value is “increased”; the “Lysosome staining pattern for Gba and LAMP-1” value is listed as “re-established a normal lysosome punctuate staining pattern”. In the data set with human L444P mutated Gba (setting [6]), the “Gba activity in brain (in words)” value was “trend toward increased activity”, the “Gba activity in lung (in words)” value is “trend toward increased activity” and the “Gba activity in spleen (in words)” value was “significant increased”. Further, the “Gba activity in brain (in words)” value with human L444P mutated Gba (after two weeks of treatment, data not shown, listed as AT2206) was “trend toward increase”.
On to `OC[C@H]1NC[C@H](O)[C@@H](O)[C@H]1O` [DGJ, 1-deoxygalactonojirimycin], for which, on mutant (R301Q) α-Gal A, the “Enzyme activity in major organs” value was “substantially elevated”. Also, in data set [2], the “In vitro stability of the mutant enzyme” value is on record as “effectively increased”. Also, the “Mutant enzyme activity in lymphoblasts” value in data set [3] is reported as “enhanced”.
With `OC[C@H]1CNC[C@@H](O)[C@@H]1O` [isofagomine, (3R,4R,5R)-5-(hydroxymethyl)-3,4-piperidinediol], in data set [4], the “Detection in the CSF following treatment” value was “detected”. In data set [1] (30 μM, Gba staining only (FIG. 2M)), the Gba staining localization result was “localize to lysosomes”. In data set [1] (N370S fibroblasts, 30.0 μM), the “Amount of Gba in the lysosomes” value is recorded as “increased”; the “Lysosome staining pattern for Gba and LAMP-1” value is “re-established a normal lysosome punctuate staining pattern”. Moreover, in data set [1] (setting [7]), the “Amount of Gba seen in the lysosome” value is reported as “increased” and the “Lysosomal staining pattern of the cells” value is “restored a normal lysosomal staining pattern”. Besides, the “Rescue of Gba” value in the data set with Gaucher patient cells was “rescue”. Besides, the “Gba activity in brain” value in the data set on human L444P mutated Gba (after 2 weeks of treatment, untreated about 1 U/mg) is reported as “about 4.5 U/mg”. Further, in the data set on human L444P mutated Gba (after 4 weeks of treatment, untreated about 1 U/mg), the “Gba activity in brain” value is reported as “about 4.5 U/mg”. In addition, the “Gba activity in brain” value in the data set with human L444P mutated Gba (after 12 weeks of treatment, p<0.001) is listed as “about 6 U/mg”. Moreover, in the data set with human L444P mutated Gba (after 4 weeks of treatment at 10 mg/kg/day (FIG. 1B)), the “Gba activity in brain, washout study (in words)” value is “significantly elevated”. Also, in the data set with human L444P mutated Gba (after as little as two weeks of treatment, persisted through 4-12 weeks (FIG. 1A)), the “Gba activity in brain (in words)” value is listed as “Significant increase”.
